# Measured values published in patent US7718764B2, “Biologically active peptide [sequence] derivatives” (CMS Peptides Patent Holding Company Limited, priority 2004, dated 2010).
# Assays:
# mice antibody formation = assay: Mice antibody formation in vivo (SRBC immunisation, serum haemolysis HC50); design: species or system BALB/c mice
# Method: The mice were randomized into three groups: peptide (200 μg/kg/day), Cyclosporine A (10 mg/kg/day), and saline (0.5 ml). Each group contained 12 mice, 6 female and 6 male. The test substances were dissolved in 0.5 ml saline and applied intraperitoneally once per day for 20 consecutive days.
# Sheep red blood cells (SRBC) were resuspended with saline to 2% (v/v) and 0.2 ml of the resuspended cell solution was applied intraperitoneally to each mouse on day 16th of the test substance administration. On the day after the last test substance administration, blood was collected from the inner canthus and left at room temperature for one hour for serum exudation. After centrifugation at 200 g for 10 minutes, the serum was diluted by 200 times with normal saline.
# For the preparation of the complement working solution, 10 volumes of fresh Cavy serum was added into one volume of centrifuge-packed SRBC. […]
# For assay of the mice antibody titer, 0.2 ml of 1% SRBC suspension was added to 1 ml diluted ice-cold mouse serum from each mouse. […] To 1 ml of this supernatant, 3 ml Drabkin solution was added and left at room temperature for 10 minutes, and then the OD540nm was measured. The reference lysis-50 reading at OD540nm was determined by following the exact procedure as the sample, except replacing half of the SRBC with saline and without the centrifugation removal of the unlysed SRBC. […]
# Masugi nephritis rabbits [1] = assay: Masugi nephritis in rabbits: urine protein; type: in vivo; details: for proteinuria Week 0: saline treatment 11.72 ± 3.18; for proteinuria Week 1: saline treatment 122 ± 91; for proteinuria Week 2: saline treatment 160 ± 138; for proteinuria Week 3: saline treatment 145 ± 33; for proteinuria Week 4: saline treatment 157 ± 71
# Method: (§1) Twenty-two healthy rabbits were randomized into 5 groups: peptide (107.3 μg/kg/day and 58.5 μg/kg/day, 4 rabbits per group), dexamethasone (0.1 mg/kg/day, 4 rabbits), saline treatment (1 ml/day, 7 rabbits), and normal healthy (3 rabbits). Before the establishment of a disease state in the rabbits, measurements of serum BUN, creatinine, and urine protein over 24 hours were taken for each rabbit. If there was no abnormality in these measurements, the Masugi nephritis model was established in experimental rabbits by intravenous injection of sheep anti-rabbit renal cortex antiserum via the auricular vein, 0.5 ml per injection, one injection every 30 minutes, for a total of 4 injections per rabbit. The normal healthy (control) rabbit group was injected with saline in the same manner. Intravenous administration of the test substances via the auricular vein was started on the day after the injection of the antiserum, once per day, 1 ml per injection, for 30 consecutive days.
# Urine was collected from each rabbit over a 24 hour period once per week and the protein content determined by the sulfosalicylic acid method.
# (§2) Statistical significance was determined by the t-test of the SPSS software.
# mice T-lymphocyte [2] = assay: Mice T-lymphocyte transformation induced by ConA in vitro (spleen cells, MTT); type: cell-based, BALB/c mice; details: for OD: Table 2, ConA 5 μg/ml, 68 hrs
# Method: The spleens from healthy mice were isolated aseptically and manually dispersed in 10% FBS RPMI-1640 solution using an injection needle. The dispersed cell suspension was further sieved through a 100-gauge 150 μm diameter stainless steel sieve. The spleen cell suspension was adjusted to a density of 4×10^6/ml and was aliquoted onto 96-well cell culture plates at 100 μl/well. Peptides were dissolved in plain RPMI-1640. The design of the groupings was as given below.
# Peptide group: 100 μl working peptide solution+75 μl spleen cell suspension+25 μl ConA working solution.
# ConA control group: 100 μl RPMI-1640+75 μl spleen cell suspension+25 μl ConA working solution.
# Negative control group: 125 μl RPMI-1640+75 μl spleen cell suspension.
# The final concentration of ConA in the well was 5 μg/ml. The final concentrations of peptides in the well were 80 μg/ml, 16 μg/ml, 3.2 μg/ml, 0.64 μg/ml, and 0.128 μg/ml. Each peptide group contained three parallel wells, and eight or twelve wells for the control groups. The cells were incubated for 68 hrs at 37° C., 5% CO2. MTT method was used to obtain a reading of OD570 nm of each well referenced at 630 nm on an ELISA reader.
# Masugi nephritis rabbits [3] = assay: Masugi nephritis in rabbits: clearance of sheep anti-rabbit renal cortex IgG antibody (glomerular immunofluorescence); type: in vivo; details: saline treatment 8.7 ± 0.9
# Method: as §1, with “Before” for “Twenty-two healthy rabbits were randomized into 5 groups: peptide (107.3 μg/kg/day and 58.5 μg/kg/day, 4 rabbits per group), dexamethasone (0.1 mg/kg/day, 4 rabbits), saline treatment (1 ml/day, 7 rabbits), and normal healthy (3 rabbits). Before”
# For observation of the effects of peptides on the clearance of sheep anti-rabbit renal cortex IgG antibody from Masugi nephritis rabbits, on the day after the last test substance administration, the rabbits were sacrificed by suffocation and the right kidney was extirpated, freeze-edged and then immunofluorescently stained for the presence of sheep IgG. The fluorescence-positive area of each glomerulus was counted. Thirty glomeruli per rabbit were examined and the average positive area per glomerulus was calculated.
# as §2
# mice T-lymphocyte [4] = assay: Mice T-lymphocyte transformation in vivo (i.p. dosing 20 days, spleen cells + ConA, MTT, stimulation index); design: species or system BALB/c mice
# Method: Animals were randomized into two peptide groups (200 μg/kg/day and 50 μg/kg/day), Cyclosporine A group (10 mg/kg/day), and saline group (0.5 ml/day). Each group contained 10 mice, in which half were female and half were male. All test substances were dissolved in 0.5 ml saline and administered intraperitoneally once per day for 20 days. T-lymphocyte transformation and NK cell activity were examined on the day immediately following the last injection. The day after the last test substance administration, the mice were sacrificed by cervical dislocation. The spleens were isolated aseptically and manually dispersed in 10% FBS RPMI-1640 solution using an injection needle. The dispersed cell suspension was further sieved through a 100 gauge 150 μm diameter stainless steel sieve and adjusted to 4×10^6/ml. The cell suspensions were inoculated onto a 96 wells cell culture plate, 100 μl/well with the following design. Assay wells: 100 μl cell suspension+100 μl ConA Control wells: 100 μl cell suspension+100 μl RPMI-1640 Four assay and four control wells were set up for each animal. The plates were incubated at 37° C., 5% CO2 for 68 hours. MTT was then added and the plates read at OD 570 nm referenced at 630 nm with ELISA reader. Stimulation Index SI (%)=(assay well OD/control well OD)×100%.
# Heymann nephritis rats = assay: Heymann nephritis in rats: 24 hr urine protein; type: in vivo, Wistar rats
# Method: 20 healthy Wistar rats were randomized into two groups: peptide (200 μg/kg/day) and saline treatment (2 ml/day). Two ml of antigen were intraperitoneally injected to each rat, once every two weeks, for a total of 5 rounds of injection. Test substance administration by intraperitoneal injection was started on the day after the third immunization, once per day until the end of the experiment.
# Quantification of uriner protein began at the third week of model establishment. A urine sample was collected from each rat over a 24 hour period once every […] the urine protein content quantified by the sulfosalicylic acid method.
# Sample values were compared by t-test using SPSS software.
substance,measurement,setting,value
PLNPK [CMS-010.26],HC50,"mice antibody formation; 200 μg/kg/day i.p. 20 days, SRBC day 16, saline 167.6 ± 21.5",141.3 ± 29.3
same,Effect on mice antibody formation in vivo,"mice antibody formation; at suitable dosage, vs saline control P<0.05",suppress
same,proteinuria Week 0,Masugi nephritis rabbits [1]; 58.5 μg/kg/day i.v.,9.53 ± 4.64 mg/dL
same,proteinuria Week 1,Masugi nephritis rabbits [1]; 58.5 μg/kg/day i.v.,77 ± 62 mg/dL
same,proteinuria Week 2,Masugi nephritis rabbits [1]; 58.5 μg/kg/day i.v.,150 ± 123 mg/dL
same,proteinuria Week 3,Masugi nephritis rabbits [1]; 58.5 μg/kg/day i.v.,20 ± 12 mg/dL
same,proteinuria Week 4,Masugi nephritis rabbits [1]; 58.5 μg/kg/day i.v.,36 ± 16 mg/dL
same,proteinuria Week 0,Masugi nephritis rabbits [1]; 107.3 μg/kg/day i.v.,9.84 ± 4.29 mg/dL
same,proteinuria Week 1,Masugi nephritis rabbits [1]; 107.3 μg/kg/day i.v.,187 ± 184 mg/dL
same,proteinuria Week 2,Masugi nephritis rabbits [1]; 107.3 μg/kg/day i.v.,114 ± 145 mg/dL
same,proteinuria Week 3,Masugi nephritis rabbits [1]; 107.3 μg/kg/day i.v.,26 ± 24 mg/dL
same,proteinuria Week 4,Masugi nephritis rabbits [1]; 107.3 μg/kg/day i.v.,28 ± 32 mg/dL
same,Effect on severity of proteinuria in Masugi nephritis rabbits,Masugi nephritis rabbits [1]; vs saline treatment control P<0.05,decrease
same,OD,"mice T-lymphocyte [2]; peptide 0.128 μg/ml, ConA control 0.467 ± 0.043",0.354 ± 0.017
same,OD,"mice T-lymphocyte [2]; peptide 0.64 μg/ml, ConA control 0.467 ± 0.043",0.348 ± 0.025
same,OD,"mice T-lymphocyte [2]; peptide 3.2 μg/ml, ConA control 0.467 ± 0.043",0.332 ± 0.015
same,OD,"mice T-lymphocyte [2]; peptide 16 μg/ml, ConA control 0.467 ± 0.043",0.356 ± 0.006
same,OD,"mice T-lymphocyte [2]; peptide 80 μg/ml, MTT OD570 nm ref 630 nm, ConA control 0.467 ± 0.043, negative control 0.134 ± 0.011",0.353 ± 0.016
same,Effect on mice T-lymphocyte transformation induced by ConA in vitro,"mice T-lymphocyte [2]; at suitable concentrations, vs ConA positive control P<0.05",suppress
same,Positive area count/glomerulus,Masugi nephritis rabbits [3]; 58.5 μg/kg/day i.v. 30 days,6.3 ± 1.4
same,Positive area count/glomerulus,Masugi nephritis rabbits [3]; 107.3 μg/kg/day i.v. 30 days,5.6 ± 1.2
same,SI,"mice T-lymphocyte [4]; Table 4, 200 μg/kg/day i.p. 20 days, saline 3.63 ± 0.69",2.19 ± 0.59
same,Effect on mice T-lymphocyte transformation in vivo,"mice T-lymphocyte [4]; at suitable dosages, vs saline control P<0.05",suppress
same,24 hr. urine protein concentration Week 3,"Heymann nephritis rats; 200 μg/kg/day i.p., Week 3, saline treatment 4.1 ± 1.3",6.2 ± 2.3 mg/dL
same,24 hr. urine protein concentration Week 5,"Heymann nephritis rats; 200 μg/kg/day i.p., Week 5, saline treatment 3.1 ± 0.8",3.1 ± 1.4 mg/dL
same,24 hr. urine protein concentration Week 7,"Heymann nephritis rats; 200 μg/kg/day i.p., Week 7, saline treatment 10.9 ± 2.8",3.9 ± 1.6 mg/dL
same,24 hr. urine protein concentration Week 9,"Heymann nephritis rats; 200 μg/kg/day i.p., Week 9, saline treatment 12.6 ± 1.2",3.8 ± 2.2 mg/dL
same,Effect on severity of proteinuria in Heymann nephritis rats,"Heymann nephritis rats; at suitable dosage, vs saline treatment P<0.05",decrease
